Measurements from patent US11052154B2, “Ras protein degradation inducing molecule and pharmaceutical composition” (Tokyo University of Science Foundation, priority 2016, dated 2021).

Key:
[1] = biological target: T1, endogenous wild-type H-Ras protein (Mus musculus, UniProt Q61411); assay: Degradation of endogenous wild-type H-Ras protein in mouse pancreas and colorectal tissue, Western blot analysis; assay type: in vivo; details: C57BL/6J mice, intraperitoneal, 48 hours, FIG. 8
T1 construct: an endogenous wild-type K-Ras protein and wild-type H-Ras protein; from tissue; host or cells: mouse pancreas and colon
Protocol: (§1) In Example 9, in a mouse individual to which TUS-007 had been administered, the degradation (knockdown) of an endogenous wild-type K-Ras protein and wild-type H-Ras protein was evaluated by Western blot analysis.
(§2) TUS-007 was dissolved in DMSO, and then dissolved in corn oil so that the concentration of DMSO was 10 vol %, and then intraperitoneally administered to C57BL/6J wild-type mice (8 to 9 weeks old, male) (CLEA Japan, Inc.) in an amount of 40 mg/kg body weight or 80 mg/kg body weight (n=3 to 4). Furthermore, in addition to a group in which TUS-007 was administered, a group in which Ras-SOS had been administered in a dose of 80 mg/kg body weight was prepared. As a control, an injection carrier (corn oil containing 10 vol % DMSO) was used. The mice were kept under an environment of ad libitum access to food and water. The mice were dissected under deep anesthesia 48 hours after administration. The pancreas and colon were excised, and flash frozen in liquid nitrogen.
(§3) The frozen pancreas and colon were each triturated, and then TKM tissue lysis buffer (50 mM triethanolamine (pH 7.8), 50 mM KCl, 5 mM MgCl2, 0.25 M sucrose, 1 mM PMSF, Protein Inhibitors Cocktail-EDTA free (Nacalai Tesque, Inc.), 1 mM DTT, and a recombinant RNase inhibitor (0.2 U/μL, Takara Bio) were added, and subjected to centrifugation (at 13800 rpm×30 minutes, 4° C.), and the supernatants (pancreatic tissue extract and colorectal tissue extract) were collected. The concentration of the extracted proteins was quantified with a spectrophotometer.
(§4) Each tissue extract collected was subjected to Western blot analysis. […]
(§5) After electrophoresis, proteins were transferred to a PVDF membrane (Immobion™-P, Millipore) under conditions of 200 mA and 90 minutes using a tank-type blotting device and a transfer buffer (25 mM Tris-HCl, 195 mM glycine, 0.01% SDS, 15% methanol). […] Subsequently, the membrane was treated with a chemiluminescence reagent Immobilon™ Western (Millipore), and then chemiluminescence was detected using a lumino image analyzer LAS-3000 (FUJIFILM Corporation).

[2] = Body weight change and general condition of mice with subcutaneously implanted SW1990 cells; assay type: in vivo, mouse; details: oral 80 mg/kg once every 3 days, 7 doses
Protocol: To the subcutis of T-cell deficient mice (BALB/cAJcl-nu/nu, 4 weeks old, female) (CLEA Japan, Inc.), 0.1 mL of cell suspension in which SW1990 cells were suspended in PBS so as to be 1×10^7 cells/mL was implanted using a 26-gauge injection needle (TERUMO CORPORATION).
Immediately before administration, TUS-007 was dissolved in DMSO, 0.5 mass % carboxymethyl cellulose (Code No. 039-01335, Wako Pure Chemical Industries, Ltd.) solution was added so that the concentration of DMSO became 2.5 vol %, followed by pulverization by ultrasonic treatment to prepare a suspension of TUS-007. When the tumors of mice with subcutaneously implanted SW1990 cells grew to a size of approximately 100 mm^3, the prepared TUS-007 suspension was orally administered by gavage with a gastric tube (Code No. 5202K, Fuchigami Kikai) at a dose of 80 mg/kg body weight once every 3 days for a total of 7 doses (n=6 to 9). As a control (Vehicle), 0.5 mass % carboxymethyl cellulose solution containing 2.5 vol % DMSO was administered in the same manner.

[3] = biological target: T2, endogenous wild-type K-Ras protein (Mus musculus, UniProt P32883); assay: Degradation of endogenous wild-type K-Ras protein in mouse pancreas and colorectal tissue, Western blot analysis; assay type: in vivo; details: C57BL/6J mice, intraperitoneal, 48 hours, FIG. 8
T2 construct: an endogenous wild-type K-Ras protein and wild-type H-Ras protein; from tissue; host or cells: mouse pancreas and colon
Protocol: as §1, §2, §3, §4, §5

[4] = 40 or 80 mg/kg, pancreatic tissue
[5] = TUS-007 40 or 80 mg/kg, Ras-SOS 80 mg/kg, pancreas and colon

T1 sequence (Q61411 whole entry): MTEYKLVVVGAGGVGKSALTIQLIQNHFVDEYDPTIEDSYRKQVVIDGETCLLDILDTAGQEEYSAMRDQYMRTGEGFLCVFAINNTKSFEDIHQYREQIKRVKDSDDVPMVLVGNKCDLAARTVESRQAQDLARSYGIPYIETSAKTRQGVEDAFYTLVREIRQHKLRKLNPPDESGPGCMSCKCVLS
T2 sequence (P32883 whole entry): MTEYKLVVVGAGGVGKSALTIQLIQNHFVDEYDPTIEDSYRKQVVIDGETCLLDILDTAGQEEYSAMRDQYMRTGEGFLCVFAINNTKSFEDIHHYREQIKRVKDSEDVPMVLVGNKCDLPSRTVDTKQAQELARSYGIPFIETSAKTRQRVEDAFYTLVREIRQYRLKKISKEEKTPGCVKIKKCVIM

CCC(C)[C@H](NC(=O)CCCCCCNC(=O)[C@H](CC(C)C)NC(=O)CNC(=O)c1cc(Cl)ccc1Cl)C(=O)Nc1ccc2[nH]c(Cc3c[nH]c4ccccc34)nc2c1 (stereo in doubt) [TUS-007]
amount of the endogenous wild-type H-Ras protein in the pancreatic tissue (Western blot) [1, 4]: remarkably reduced in the pancreatic tissue | amount of the endogenous wild-type H-Ras protein in mouse tissues (Western blot) [1, 5]: reduced in a concentration-dependent manner | general condition of the mice [2]: no abnormality in the general condition of the mice | body weight changes ([2]; vs Vehicle, FIG. 9B): no significant differences in body weight changes | amount of the endogenous wild-type K-Ras protein in the pancreatic tissue (Western blot) [3, 4]: remarkably reduced in the pancreatic tissue | amount of the endogenous wild-type K-Ras protein in mouse tissues (Western blot) [3, 5]: reduced in a concentration-dependent manner
